Laboratory results reported in patent publication US4663435A, “Bridged cyclic hexapeptide somatostatin analogs” (Merck & Co., Inc., priority 1985, dated 1987).
Positions of bridges follow the written chain, without caps; N, C: chain ends. Non-standard residues stand in square brackets, D forms with d. Residues, ends and D or L forms follow the SMILES beside them.

Legend:
[1] = test system: portal vein glucagon; assay: decrease of portal vein glucagon levels in anesthetized rats; type: in vivo, rat; settings: relative to somatostatin (=1), external jugular vein, portal vein blood after 5 minutes
Method: (§1) Analogs of somatostatin were compared to somatostatin in their ability to decrease the levels of portal vein glucagon and insulin in anesthetized rats. Male Sprague-Dawley rats (Charles River CD) weighing 160-200 g were anesthetized with urethane (150 mg/100 g of body weight; Aldrich). Saline or peptides were adminstered via the external jugular vein. After 5 minutes, the portal vein was exposed, and blood was collected via syringe containing 3 mg of EDTA and placed in chilled tubes containing 100 μl of Trasylol (FBA Pharmaceuticals) for subsequent hormone analysis. Plasma levels of glucagon were determined by the method of Faloona and Unger, Methods of Hormone Radioimmunoassay, Jaffe and Behrman (Eds), Academic Press, New York, Vol. II, pp. 257-527 (1976), utilizing glucagon antisera 30K obtained from R. Unger (Dallas, TX). Plasma levels of insulin were determined by a modification of the procedure of Herbert et al., J. Clin. Endocrinol. Metab., 25, 1375-1384 (1965).

[2] = test system: growth hormone release from rat pituitary cells; assay: in vitro test for the inhibition of growth hormone release, cultured rat pituitary cells; type: cell-based; settings: multiple or fraction of the effect of somatostatin (=1), fiducial limits in parentheses, 4 hours incubation
Method: The instant cyclic hexapeptide analogs of somatostatin are tested and compared with the effects of somatostatin in an in vitro test for the inhibition of growth hormone. The test is described as follows:
"Rat pituitaries were isolated according to the procedures of Vale and Grant `In Vitro Pituitary Hormone Secretion Assay for Hypophysiotropic Substances` in Methods in Enzymology. Vol. XXXVII, eds. O'Malley, B. W. and Hardman, J. G. (Academic Press, Inc., New York) pp. 5-93 (1975).
After 4 days in culture, the cells were washed and incubated for 4 hours in Dulbecco-modified Eagle's medium in the presence or absence of graded doses of each analog or somatostatin. The medium was then collected for subsequent growth hormone determination by a double antibody radioimmunoassay for rat growth hormone."

[3] = stability of the isolated peptide with respect to polymerization; type: physicochemical
Method: In order to stabilize the compound toward such decomposition it was treated in aqueous solution with 10-40 mole % of N-ethylmaleimide, a reagent which will react with free sulfhydryl groups that could catalyze disulfide interchange. The excess N-ethyl maleimide was separated by passage through a column of Sephadex G-25 gel (superfine) eluted with 50% acetic acid.

[4] = test system: portal vein insulin; assay: decrease of portal vein insulin levels in anesthetized rats; type: in vivo, rat; settings: multiple or fraction of the effect of somatostatin (=1), fiducial limits in parentheses, external jugular vein, portal vein blood after 5 minutes
Method: as §1

SMILES	Glucagon Inhibition [1]	Growth Hormone Release Inhibition [2]	stability with respect to polymerization ([3]; after treatment with 10-40 mole % of N-ethylmaleimide and reisolation)	stability with respect to polymerization ([3]; sample as isolated, in certain solvents or on extended storage)	Insulin Inhibition [4]
C[C@@H](O)[C@@H]1NC(=O)[C@H](CCCCN)NC(=O)[C@@H](Cc2c[nH]c3ccccc23)NC(=O)[C@H](Cc2ccccc2)NC(=O)[C@@H]2CSSC[C@H](NC1=O)C(=O)N2 (cyclo(CCF[dW]KT); disulfide 1-2)	Active	2.47(1.66-3.81)	completely stable	unstable	10.6(5.5-19.9)
C[C@H](N)C(=O)NCC(=O)N[C@H]1CSSC[C@@H](C(=O)O)NC(=O)[C@H](CO)NC(=O)[C@H]([C@@H](C)O)NC(=O)[C@H](Cc2ccccc2)NC(=O)[C@H]([C@@H](C)O)NC(=O)[C@H](CCCCN)NC(=O)[C@H](Cc2c[nH]c3ccccc23)NC(=O)[C@H](Cc2ccccc2)NC(=O)[C@H](Cc2ccccc2)NC(=O)[C@H](CC(N)=O)NC(=O)[C@H](CCCCN)NC1=O [Somatostatin]	1	–	–	–	–
